Source: US5202339A, “Hydantoin derivatives” (Mochida Pharmaceutical Co., Ltd., priority 1987, dated 1993)
Entries after “also recorded” stand apart in the source; their conditions may differ.

Legend:
[1] = molecular target: T1, bovine lens aldose reductase (Bos taurus, UniProt P16116); assay: inhibitory activity on bovine lens aldose reductase (Experimental Example 2); assay type: biochemical; settings: for IC50: pH 6.2, 10 mM DL-glyceraldehyde, 0.16 mM NADPH
T1 construct: bovine lens aldose reductase preparation was used; from tissue; host or cells: bovine lens
Protocol: (§1) Assays were performed in 0.1M phosphate buffer (pH 6.2) containing 0.4M ammonium sulfate, 10 mM DL-glyceraldehyde, 0.16 mM nicotinamide adenine dinucleotide phosphate, reduced form (NADPH) and aldose reductase (0.010-0.016 units) in a total volume of 1.0 ml. To this mixture was added 10 μl of the solution of each hydantoin derivative to be tested, and the decrease in absorbance at 340 nm was measured with a spectrophotometer.

ICR strain mice = assay: acute toxicity in mice (Experimental Example 3); assay type: in vivo; settings: 1 g/kg, oral, groups of 5 ICR mice
Excerpt: Hydantoin derivatives of the present invention were examined for acute toxicity.

[2] = tested on: Streptozotocin-Diabetic Rats; assay: Hypoglycemic Effects in Streptozotocin-Diabetic Rats (Experimental Example 4); assay type: in vivo, rat (male Wistar); settings: STZ-diabetic rats, 100 mg/kg oral; for inhibition in vivo at 100 mg/kg: Rattus norvegicus, 6 hrs after administration, read-out: Lowering rate of serum glucose (%)
Protocol: (§2) Diabetic rats were produced according to the method of Junod et al. (A. Junod et al., J. Clin. Invest., 48, 2129 (1969)). Briefly, male Wistar rats were given 26.5 mg/kg of streptozotocin (STZ) intravenously. Four days later, the rats with serum glucose levels of between 400 and 500 mg/dl were used. After being fasted for 4 hrs, groups of 5 diabetic rats were orally administered with the compounds of the present invention or gliclazide in a dose of 100 mg/kg. Blood sample were collected from the orbital vein before and 6 hrs after the administration. Serum glucose levels were determined by the enzymatic method with an autoanalyzer (Cobas Fara®, Roche).

[3] = molecular target: T2, rat lens aldose reductase (Rattus norvegicus, UniProt P07943); assay: inhibitory activity on rat lens aldose reductase (Experimental Example 1); assay type: biochemical; settings: pH 6.2, 10 mM DL-glyceraldehyde, 0.16 mM NADPH
T2 construct: rat lens aldose reductase; from tissue; host or cells: rat lens
Protocol: as §1, with “The inhibitory activities of hydantoin derivatives on rat lens aldose reductase were measured according to the procedure of Inagaki et al. (K. Inagaki et al., Arch. Biochem. Biophys., 216, 337 (1982)) with slight modifications. Assays” for “Assays”
The concentrations of typical hydantoin derivatives of the present invention required to produce 50% inhibition are shown in table 1.

[4] = tested on: Streptozotocin-Diabetic Rats; assay: Ketone Body Lowering Effects in Streptozotocin-Diabetic Rats (Experimental Example 5); assay type: in vivo, rat (male Wistar); settings: STZ-diabetic rats, oral for 2 weeks
Protocol: as §2
(§3) Diabetic rats were produced according to the method described previously. Groups of 5 diabetic rats were orally administered with compound 38 or 47 of the present invention for 2 weeks. The rats were deprived of food 4 hrs before the last administration, and 6 hrs after the last administration, blood samples were collected from the orbital vein. Serum total ketone body (KB) levels were determined by the enzymatic method with an autoanalyzer (Cobas Fara®, Roche). In this experiment, serum total ketone body levels in streptozotocin-diabetic rats increased by 92 % of normal rats in the mean value.

Normal Rats = assay: Hypoglycemic Effects in Normal Rats (Experimental Example 6); assay type: in vivo, rat (male Wistar); settings: normal animals
Protocol: Groups of 5 male Wistar rats, after being fasted for 4 hrs, where orally administered with compound 38 or 47 of the present invention or gliclazide. Blood samples were collected from the orbital vein before, 1 hr and 6 hrs after the administration. Serum glucose levels were determined by the enzymatic method with an autoanalyzer (Cobas Fara®, Roche).

[5] = tested on: Streptozotocin-Diabetic Rats; assay: Hypolipidemic Effects in Streptozotocin-Diabetic Rats (Experimental Example 7); assay type: in vivo, rat (male Wistar); settings: STZ-diabetic rats, 100 mg/kg oral for 2 weeks
Protocol: as §2
as §3, with “invention at a dose of 100 mg/kg” for “invention”, “triglyceride (TG), non-esterified fatty acid (NEFA) and cholesterol (CHOL)” for “total ketone body (KB)”, “experiment, each parameters of” for “experiment,”, “lipids” for “total ketone body levels”, “40” for “92”

SMILES | IC50 [1] [nM] | acute toxicity: change observed over the one-week period after administration (ICR strain mice) | inhibition in vivo at 100 mg/kg [2] [%] | also measured
O=C1CN(S(=O)(=O)c2cc3cc(Cl)ccc3o2)C(=O)N1 [Compound 20, 1-(5-chlorobenzo[b]furan-2-ylsulfonyl)hydantoin] | 360 | no change was observed | 12.8 | –
O=C1CN(S(=O)(=O)c2cc3c(Cl)c(Cl)ccc3o2)C(=O)N1 [Compound 44, 1-(4,5-dichlorobenzo[b]furan-2-yl-sulfonyl)hydantoin] | 61 | no change was observed | 21.1 | –
O=C1CN(S(=O)(=O)c2cc3ccc(Cl)cc3cc2Cl)C(=O)N1 [Compound 7, 1-(3,6-dichloronaphthalen-2-ylsulfonyl)hydantoin] | – | no change was observed | 23.2 | IC50 [3]: 240 nM
O=C1CN(S(=O)(=O)c2cc3ccccc3o2)C(=O)N1 [Compound 19, 1-(benzo[b]furan-2-ylsulfonyl)hydantoin] | – | no change was observed | 52.1 | –
O=C1CN(S(=O)(=O)c2ccc3ccccc3c2Cl)C(=O)N1 [Compound 1, 1-(1-chloronaphthalen-2-ylsulfonyl)hydantoin] | – | – | 37.2 | IC50 [3]: 290 nM
O=C1CN(S(=O)(=O)c2cc3c(Cl)cccc3s2)C(=O)N1 [Compound 40, 1-(4-chlorobenzo[b]thiophen-2-yl-sulfonyl)hydantoin] | 170 | no change was observed | 11 | –
O=C1CN(S(=O)(=O)c2oc3ccccc3c2Br)C(=O)N1 [Compound 38, 1-(3-bromobenzo[b]furan-2-ylsulfonyl)hydantoin] | 160 | no change was observed | 33.5 | lowering of serum total ketone body levels (in words) [4]: lowering activity of serum total ketone body levels; influence on serum glucose level of normal rats (in words) (Normal Rats): lesser influences on serum glucose level of normal rats; lowering of serum lipid levels (in words) [5]: lowering activities of serum triglyceride, non esterified fatty acid and cholesterol levels
O=C1CN(S(=O)(=O)c2ccc3c(Cl)cccc3c2)C(=O)N1 [Compound 3, 1-(5-chloronaphthalen-2-ylsulfonyl)hydantoin] | – | – | 19 | IC50 [3]: 190 nM
O=C1CN(S(=O)(=O)c2cc3cc(Cl)c(Cl)cc3o2)C(=O)N1 [Compound 45, 1-(5,6-dichlorobenzo[b]furan-2-yl-sulfonyl)hydantoin] | 83 | no change was observed | 28.5 | –
O=C1CN(S(=O)(=O)c2oc3ccccc3c2Cl)C(=O)N1 [Compound 47, 1-(3-chlorobenzo[b]furan-2-ylsulfonyl)hydantoin] | – | – | 44.7 | lowering of serum total ketone body levels (in words) [4]: lowering activity of serum total ketone body levels; influence on serum glucose level of normal rats (in words) (Normal Rats): lesser influences on serum glucose level of normal rats; lowering of serum lipid levels (in words) [5]: lowering activities of serum triglyceride, non esterified fatty acid and cholesterol levels
Cc1ccc(S(=O)(=O)NC(=O)NN2CC3CCCC3C2)cc1 (stereo not drawn) [Compound C, gliclazide, reference compound] | – | – | 11 | hypoglycemic activity in diabetic animals (in words) [2]: less potent hypoglycemic activity than all compounds of the present invention; influence on serum glucose level of normal rats (in words) (Normal Rats): significantly lowered serum glucose level of normal rats; also recorded: remarkable hypoglycemic activity in normal animals
O=C1CN(S(=O)(=O)c2cc3cc(Br)ccc3o2)C(=O)N1 [Compound 21, 1-(5-bromobenzo[b]furan-2-ylsulfonyl)hydantoin] | 300 | no change was observed | 22.3 | –
O=C1CN(S(=O)(=O)c2cc(Cl)sc2Cl)C(=O)N1 [Compound 24, 1-(2,5-dichlorothiophen-3-ylsulfonyl)hydantoin] | 290 | no change was observed | – | potency compared with compound 13 and 15 ([1]; in words): as potent as compound 13 and 15
O=C1CN(S(=O)(=O)c2cc3ccccc3cc2Br)C(=O)N1 [Compound 9, 1-(3-bromonaphthalen-2-ylsulfonyl)hydantoin] | – | – | 17.4 | IC50 [3]: 350 nM
